Experimental data taken from the supplement of paper PMC10331698.
± gives the standard deviation of the averaged measurements.

Experiments:
Assay in all cases: level (log10 ratio to DMSO vehicle control); higher = higher biomarker level / cell amount than vehicle control
[1] = compound: C=C(C)C(=O)OCCC(F)(F)C(F)(F)C(F)(F)C(F)(F)C(F)(F)C(F)(F)F [6:2 Fluorotelomer methacrylate]; conditions: in DMSO
Method: (§1)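 BioMAP Diversity Plus panel of 12 human primary cell co-culture systems (3C, 4H, LPS, SAg, BT, BF4T, BE3C, CASM3C, HDF3CGF, KF3CT, MyoF, Mphg). Compounds were added 1 h before stimulation and left for 24 h (MyoF 48 h; BT 72 h for soluble read-outs or 6 d for IgG). Biomarkers were read by ELISA, cytotoxicity by SRB, PBMC viability and proliferation by Alamar Blue. Each well value was divided by the mean of 8 DMSO control wells on the same plate and log10 transformed; duplicate blinded samples were tested at 4 concentrations.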

[2] = compound: C=CC(=O)OCC(F)(F)C(F)(F)C(F)(F)COC(=O)C=C [1H,1H,5H,5H-Perfluoro-1,5-pentanediol diacrylate]; conditions: 6700 nM; in DMSO
Method: as §1

[3] = compound: COC(=O)C(F)(F)C(F)(F)OC(F)(C(F)(F)F)C(F)(F)OC(F)=C(F)F [Methyl perfluoro(3-(1-ethenyloxypropan-2-yloxy)propanoate)]; conditions: in DMSO
Method: as §1

[4] = compound: FC(F)(F)C(F)(F)C(F)(F)C(F)(F)C(F)(F)C(F)(F)C(F)(F)I [1-Iodopentadecafluoroheptane]; conditions: in DMSO
Method: as §1

[5] = compound: FC(F)(F)C(F)(F)C(F)(F)C(F)(F)C(F)(F)C(F)(F)CC1CO1 [3-(Perfluorohexyl)-1,2-epoxypropane]; conditions: in DMSO
Method: as §1

[6] = compound: FC(F)(F)C(F)(F)C(F)(F)CC1CO1 [1H,1H-Heptafluorobutyl epoxide]; conditions: in DMSO
Method: as §1

Heptafluorobutyl iodide = compound: FC(F)(F)C(F)(F)C(F)(F)CI [Heptafluorobutyl iodide]; conditions: in DMSO
Method: as §1

[7] = compound: FC(F)(F)C(F)(F)CNCC(F)(F)C(F)(F)F [Bis(1H,1H-perfluoropropyl)amine]; conditions: in DMSO
Method: as §1

Octafluoroadipamide = compound: NC(=O)C(F)(F)C(F)(F)C(F)(F)C(F)(F)C(N)=O [Octafluoroadipamide]; conditions: in DMSO
Method: as §1

Nonafluoropentanamide = compound: NC(=O)C(F)(F)C(F)(F)C(F)(F)C(F)(F)F [Nonafluoropentanamide]; conditions: in DMSO
Method: as §1

[8] = compound: NC(=O)C(F)(F)C(F)(F)C(F)(F)C(F)F; conditions: in DMSO
Method: as §1

[9] = compound: NS(=O)(=O)C(F)(F)C(F)(F)C(F)(F)C(F)(F)C(F)(F)C(F)(F)F [Perfluorohexanesulfonamide]; conditions: in DMSO
Method: as §1

[10] = compound: O=C(O)C(F)(F)C(F)(F)C(F)(F)C(F)(F)C(F)(F)C(F)(F)C(F)(F)C(F)(F)C(F)(F)C(F)F [11-H-Perfluoroundecanoic acid]; conditions: in DMSO
Method: as §1

[11] = compound: O=C(O)C=CC(F)(C(F)(F)F)C(F)(F)F [3-(Perfluoroisopropyl)-2-propenoic acid]; conditions: in DMSO
Method: as §1

[12] = compound: O=S(=O)(Cl)C(F)(F)C(F)(F)C(F)(F)C(F)(F)C(F)(F)C(F)(F)C(F)(F)C(F)(F)F [Perfluoro-1-octanesulfonyl chloride]; conditions: in DMSO
Method: as §1

[13] = compound: O=S(=O)(F)C(F)(F)C(F)(F)C(F)(F)C(F)(F)C(F)(F)C(F)(F)C(F)(F)C(F)(F)F [Perfluorooctanesulfonyl fluoride]; conditions: in DMSO
Method: as §1

[14] = compound: O=S(=O)(O)C(F)(F)C(F)(F)C(F)(F)C(F)(F)C(F)(F)C(F)(F)C(F)(F)C(F)(F)C(F)(F)C(F)(F)F [Sodium perfluorodecanesulfonate]; conditions: in DMSO
Method: as §1

[15] = compound: O=S(=O)(O)CCC(F)(F)C(F)(F)C(F)(F)C(F)(F)C(F)(F)C(F)(F)F [6:2 Fluorotelomer sulfonic acid]; conditions: in DMSO
Method: as §1

Hexafluoroamylene glycol = compound: OCC(F)(F)C(F)(F)C(F)(F)CO [Hexafluoroamylene glycol]; conditions: in DMSO
Method: as §1

BF4T:CD54/ICAM-1
level (log10) ([1]; 6700 nM): -0.019 ± 0.0042 | level (log10) ([1]; 20000 nM): -0.0045 ± 0.026 | level (log10) ([1]; 60000 nM): -0.0195 ± 0.0035 | level (log10) [2]: -0.084 ± 0.011 | level (log10) ([3]; 6700 nM): -0.0215 ± 0.011 | level (log10) ([3]; 20000 nM): -0.0265 ± 0.0064 | level (log10) ([4]; 6700 nM): 0.004 ± 0.011 | level (log10) ([4]; 20000 nM): -0.0025 ± 0.013 | level (log10) ([5]; 6700 nM): -0.002 ± 0.0057 | level (log10) ([5]; 20000 nM): 0.0025 ± 0.0021 | level (log10) ([5]; 60000 nM): 0.007 | level (log10) ([6]; 6700 nM): -0.027 ± 0.016 | level (log10) ([6]; 20000 nM): -0.003 ± 0.035 | level (log10) ([6]; 60000 nM): -0.0245 ± 0.018 | level (log10) (Heptafluorobutyl iodide; 6700 nM): -0.012 ± 0.011 | level (log10) (Heptafluorobutyl iodide; 20000 nM): -0.008 ± 0.016 | level (log10) (Heptafluorobutyl iodide; 60000 nM): -0.003 ± 0.031 | level (log10) ([7]; 6700 nM): -0.0035 ± 0.0021 | level (log10) ([7]; 20000 nM): -0.013 ± 0.0014 | level (log10) ([7]; 60000 nM): 0.001 ± 0.04 | level (log10) (Octafluoroadipamide; 6700 nM): -0.015 ± 0.023 | level (log10) (Octafluoroadipamide; 20000 nM): -0.017 ± 0.021 | level (log10) (Octafluoroadipamide; 60000 nM): 0.009 ± 0.016 | level (log10) (Nonafluoropentanamide; 6700 nM): -0.003 ± 0.0028 | level (log10) (Nonafluoropentanamide; 20000 nM): -0.0005 ± 0.00071 | level (log10) (Nonafluoropentanamide; 60000 nM): 0.007 ± 0.0099 | level (log10) ([8]; 6700 nM): -0.0105 ± 0.015 | level (log10) ([8]; 20000 nM): -0.0095 ± 0.022 | level (log10) ([8]; 60000 nM): -0.0045 ± 0.0021 | level (log10) ([9]; 6700 nM): -0.015 ± 0.0014 | level (log10) ([9]; 20000 nM): -0.0375 ± 0.0064 | level (log10) ([9]; 60000 nM): -0.0645 ± 0.0078 | level (log10) ([10]; 6700 nM): -0.0375 ± 0.0021 | level (log10) ([10]; 20000 nM): -0.104 ± 0.016 | level (log10) ([11]; 6700 nM): 0.007 ± 0.0042 | level (log10) ([11]; 20000 nM): -0.0005 ± 0.025 | level (log10) ([11]; 60000 nM): 0.011 ± 0.0028 | level (log10) ([12]; 6700 nM): -0.011 ± 0.0085 | level (log10) ([12]; 20000 nM): -0.023 | level (log10) ([12]; 60000 nM): -0.084 | level (log10) ([13]; 6700 nM): -0.002 ± 0.0014 | level (log10) ([13]; 20000 nM): -0.006 | level (log10) ([13]; 60000 nM): -0.0045 ± 0.0021 | level (log10) ([14]; 1500 nM): -0.019 ± 0.0071 | level (log10) ([14]; 4400 nM): -0.031 ± 0.016 | level (log10) ([14]; 13000 nM): -0.014 ± 0.014 | level (log10) ([14]; 40000 nM): -0.0105 ± 0.025 | level (log10) ([15]; 6700 nM): -0.0115 ± 0.00071 | level (log10) ([15]; 20000 nM): -0.015 ± 0.021 | level (log10) ([15]; 60000 nM): -0.0095 ± 0.018 | level (log10) (Hexafluoroamylene glycol; 6700 nM): -0.0145 ± 0.005 | level (log10) (Hexafluoroamylene glycol; 20000 nM): -0.0045 ± 0.015 | level (log10) (Hexafluoroamylene glycol; 60000 nM): 0.009 ± 0.014

BT:sTNF-alpha
level (log10) ([1]; 6700 nM): -0.0045 ± 0.0035 | level (log10) ([1]; 20000 nM): 0.0045 ± 0.012 | level (log10) ([1]; 60000 nM): -0.068 ± 0.058 | level (log10) [2]: -0.94 ± 0.21 | level (log10) ([3]; 6700 nM): -0.0085 ± 0.018 | level (log10) ([3]; 20000 nM): 0.0935 ± 0.032 | level (log10) ([4]; 6700 nM): -0.051 ± 0.018 | level (log10) ([4]; 20000 nM): 0.093 ± 0.17 | level (log10) ([5]; 6700 nM): 0.013 ± 0.11 | level (log10) ([5]; 20000 nM): 0.128 ± 0.0064 | level (log10) ([5]; 60000 nM): 0.0765 ± 0.14 | level (log10) ([6]; 6700 nM): -0.042 ± 0.12 | level (log10) ([6]; 20000 nM): -0.038 ± 0.02 | level (log10) ([6]; 60000 nM): -0.123 ± 0.19 | level (log10) (Heptafluorobutyl iodide; 6700 nM): -0.035 ± 0.22 | level (log10) (Heptafluorobutyl iodide; 20000 nM): 0.149 ± 0.096 | level (log10) (Heptafluorobutyl iodide; 60000 nM): 0.0905 ± 0.069 | level (log10) ([7]; 6700 nM): 0.046 ± 0.05 | level (log10) ([7]; 20000 nM): 0.0265 ± 0.21 | level (log10) ([7]; 60000 nM): 0.0915 ± 0.12 | level (log10) (Octafluoroadipamide; 6700 nM): 0.058 ± 0.23 | level (log10) (Octafluoroadipamide; 20000 nM): 0.116 ± 0.098 | level (log10) (Octafluoroadipamide; 60000 nM): 0.194 ± 0.077 | level (log10) (Nonafluoropentanamide; 6700 nM): 0.089 ± 0.086 | level (log10) (Nonafluoropentanamide; 20000 nM): 0.031 ± 0.069 | level (log10) (Nonafluoropentanamide; 60000 nM): 0.0565 ± 0.04 | level (log10) ([8]; 6700 nM): 0.0475 ± 0.19 | level (log10) ([8]; 20000 nM): -0.0695 ± 0.0035 | level (log10) ([8]; 60000 nM): -0.0215 ± 0.047 | level (log10) ([9]; 6700 nM): -0.013 ± 0.12 | level (log10) ([9]; 20000 nM): -0.027 ± 0.065 | level (log10) ([9]; 60000 nM): 0.068 ± 0.09 | level (log10) ([10]; 6700 nM): 0.016 ± 0.059 | level (log10) ([10]; 20000 nM): -0.051 ± 0.024 | level (log10) ([11]; 6700 nM): -0.0275 ± 0.04 | level (log10) ([11]; 20000 nM): -0.149 ± 0.1 | level (log10) ([11]; 60000 nM): -0.028 ± 0.03 | level (log10) ([12]; 6700 nM): 0.067 ± 0.042 | level (log10) ([12]; 20000 nM): 0.126 ± 0.016 | level (log10) ([12]; 60000 nM): 0.102 ± 0.16 | level (log10) ([13]; 6700 nM): 0.0075 ± 0.044 | level (log10) ([13]; 20000 nM): -0.0215 ± 0.0092 | level (log10) ([13]; 60000 nM): -0.041 ± 0.15 | level (log10) ([14]; 1500 nM): -0.018 ± 0.13 | level (log10) ([14]; 4400 nM): 0.005 ± 0.067 | level (log10) ([14]; 13000 nM): -0.0135 ± 0.0064 | level (log10) ([14]; 40000 nM): 0.0075 ± 0.21 | level (log10) ([15]; 6700 nM): -0.011 ± 0.031 | level (log10) ([15]; 20000 nM): 0.0335 ± 0.07 | level (log10) ([15]; 60000 nM): -0.021 ± 0.04 | level (log10) (Hexafluoroamylene glycol; 6700 nM): 0.0165 ± 0.037 | level (log10) (Hexafluoroamylene glycol; 20000 nM): 0.0085 ± 0.022 | level (log10) (Hexafluoroamylene glycol; 60000 nM): 0.0215 ± 0.064
